We go through one compound from publication PMC12661400, “Oral bioavailable ITRI-148 degrades androgen receptor variants and overcomes antiandrogen resistance in advanced prostate cancer” (Neoplasia (New York, N.Y.), 2025).

What all share (assay): MTT cell viability, 7 days
Common to all, as to assay type: cell-based

One assay has as its system CWR22Rv1. Conditions: 168 h. As for the experimental part: (§1) Cells were seeded in 96-well plates and treated with drugs the next day. After 7 days, viability was assessed using MTT assay.
(§2) (C) Western blot analysis of AR and AR-V7 in C4-2B and C4-2B/MDVR cells after 48-hour ITRI-148 treatment. […] DEGs were determined relative to DMSO or pLKO.1 vector control. […] RPL13A was used for normalization. […] AR, AR-V7, and PSA expression in the drug-treated cells were detected across treatment timepoints.

The subject of a further assay is C4-2B/MDVR. To be noted: 168 h. The protocol:
as §1, §2

The subject of the next assay is LNCaP95. To be noted: LNCaP-95, 168 h. As for the experimental part: as §1, §2
The next assay deals with VCaP. Conditions: Homo sapiens, 168 h. As for the experimental part:
as §1, §2

For the next assay, the system named is PNT2. As for the experimental part:
as §1, §2

The test system of the next assay is LNCaP. Conditions: Homo sapiens, 168 h. The protocol: as §1, §2
Another assay deals with PC3. The protocol: as §1, §2

On to `O=C1CCC(N2C(=O)c3cccc(NCC(=O)N4CCC(N5CCC(C#Cc6ccc(C7CCN(C8=Nn9c(nnc9C(F)(F)F)CC8)CC7)cc6)CC5)CC4)c3C2=O)C(=O)N1` (stereo not drawn) [ITRI-148], for which the IC50 in the assay on CWR22Rv1 is 2.15 µM; in the assay with C4-2B/MDVR it was 1.6 µM; in the assay with LNCaP95 it was 1.96 µM; with VCaP, 0.89 µM; in the assay with PNT2 (Homo sapiens, PNT2, MTT), above 10 µM; in the assay on LNCaP, 0.17 µM. This compound had an IC50 in the assay with PC3 (Homo sapiens, PC-3, PC3, MTT) above 10 µM. The “sensitivity of cell viability” value in the assay on PNT2 (normal prostate epithelial cells (PNT2)) and with PC3 (AR-negative CRPC cells (PC3)) was “insensitive” each time.

As a reminder, the IC50 is the midpoint of a concentration-inhibition curve. A higher IC50 goes with lower potency.
